Legend:
Assay in all cases: chemoproteomic target identification by competition binding – cell lysate, SILAC, HepG2 extract, LC-MS/MS, mechanism study for Trib1 inducer project, late-stage follow-up (AID 1053157)
[1] = biological target: Ferroptosis suppressor protein 1 (Homo sapiens) (UniProt Q9BRQ8); conditions: Apoptosis-inducing factor
[2] = biological target: NADH dehydrogenase [ubiquinone] 1 alpha subcomplex subunit 6 (Homo sapiens) (UniProt P56556)
Prenylcysteine oxidase 1 = Prenylcysteine oxidase 1 (UniProt Q9UHG3)
Protein zwilch homolog = Protein zwilch homolog (UniProt Q9H900)
Ran-binding protein 6 = Ran-binding protein 6 (UniProt O60518)
[3] = biological target: Ubiquitin carboxyl-terminal hydrolase 34 (UniProt Q70CQ2)
Ubiquitin carboxyl-terminal hydrolase 34, sequence (Q70CQ2 whole entry, looked up): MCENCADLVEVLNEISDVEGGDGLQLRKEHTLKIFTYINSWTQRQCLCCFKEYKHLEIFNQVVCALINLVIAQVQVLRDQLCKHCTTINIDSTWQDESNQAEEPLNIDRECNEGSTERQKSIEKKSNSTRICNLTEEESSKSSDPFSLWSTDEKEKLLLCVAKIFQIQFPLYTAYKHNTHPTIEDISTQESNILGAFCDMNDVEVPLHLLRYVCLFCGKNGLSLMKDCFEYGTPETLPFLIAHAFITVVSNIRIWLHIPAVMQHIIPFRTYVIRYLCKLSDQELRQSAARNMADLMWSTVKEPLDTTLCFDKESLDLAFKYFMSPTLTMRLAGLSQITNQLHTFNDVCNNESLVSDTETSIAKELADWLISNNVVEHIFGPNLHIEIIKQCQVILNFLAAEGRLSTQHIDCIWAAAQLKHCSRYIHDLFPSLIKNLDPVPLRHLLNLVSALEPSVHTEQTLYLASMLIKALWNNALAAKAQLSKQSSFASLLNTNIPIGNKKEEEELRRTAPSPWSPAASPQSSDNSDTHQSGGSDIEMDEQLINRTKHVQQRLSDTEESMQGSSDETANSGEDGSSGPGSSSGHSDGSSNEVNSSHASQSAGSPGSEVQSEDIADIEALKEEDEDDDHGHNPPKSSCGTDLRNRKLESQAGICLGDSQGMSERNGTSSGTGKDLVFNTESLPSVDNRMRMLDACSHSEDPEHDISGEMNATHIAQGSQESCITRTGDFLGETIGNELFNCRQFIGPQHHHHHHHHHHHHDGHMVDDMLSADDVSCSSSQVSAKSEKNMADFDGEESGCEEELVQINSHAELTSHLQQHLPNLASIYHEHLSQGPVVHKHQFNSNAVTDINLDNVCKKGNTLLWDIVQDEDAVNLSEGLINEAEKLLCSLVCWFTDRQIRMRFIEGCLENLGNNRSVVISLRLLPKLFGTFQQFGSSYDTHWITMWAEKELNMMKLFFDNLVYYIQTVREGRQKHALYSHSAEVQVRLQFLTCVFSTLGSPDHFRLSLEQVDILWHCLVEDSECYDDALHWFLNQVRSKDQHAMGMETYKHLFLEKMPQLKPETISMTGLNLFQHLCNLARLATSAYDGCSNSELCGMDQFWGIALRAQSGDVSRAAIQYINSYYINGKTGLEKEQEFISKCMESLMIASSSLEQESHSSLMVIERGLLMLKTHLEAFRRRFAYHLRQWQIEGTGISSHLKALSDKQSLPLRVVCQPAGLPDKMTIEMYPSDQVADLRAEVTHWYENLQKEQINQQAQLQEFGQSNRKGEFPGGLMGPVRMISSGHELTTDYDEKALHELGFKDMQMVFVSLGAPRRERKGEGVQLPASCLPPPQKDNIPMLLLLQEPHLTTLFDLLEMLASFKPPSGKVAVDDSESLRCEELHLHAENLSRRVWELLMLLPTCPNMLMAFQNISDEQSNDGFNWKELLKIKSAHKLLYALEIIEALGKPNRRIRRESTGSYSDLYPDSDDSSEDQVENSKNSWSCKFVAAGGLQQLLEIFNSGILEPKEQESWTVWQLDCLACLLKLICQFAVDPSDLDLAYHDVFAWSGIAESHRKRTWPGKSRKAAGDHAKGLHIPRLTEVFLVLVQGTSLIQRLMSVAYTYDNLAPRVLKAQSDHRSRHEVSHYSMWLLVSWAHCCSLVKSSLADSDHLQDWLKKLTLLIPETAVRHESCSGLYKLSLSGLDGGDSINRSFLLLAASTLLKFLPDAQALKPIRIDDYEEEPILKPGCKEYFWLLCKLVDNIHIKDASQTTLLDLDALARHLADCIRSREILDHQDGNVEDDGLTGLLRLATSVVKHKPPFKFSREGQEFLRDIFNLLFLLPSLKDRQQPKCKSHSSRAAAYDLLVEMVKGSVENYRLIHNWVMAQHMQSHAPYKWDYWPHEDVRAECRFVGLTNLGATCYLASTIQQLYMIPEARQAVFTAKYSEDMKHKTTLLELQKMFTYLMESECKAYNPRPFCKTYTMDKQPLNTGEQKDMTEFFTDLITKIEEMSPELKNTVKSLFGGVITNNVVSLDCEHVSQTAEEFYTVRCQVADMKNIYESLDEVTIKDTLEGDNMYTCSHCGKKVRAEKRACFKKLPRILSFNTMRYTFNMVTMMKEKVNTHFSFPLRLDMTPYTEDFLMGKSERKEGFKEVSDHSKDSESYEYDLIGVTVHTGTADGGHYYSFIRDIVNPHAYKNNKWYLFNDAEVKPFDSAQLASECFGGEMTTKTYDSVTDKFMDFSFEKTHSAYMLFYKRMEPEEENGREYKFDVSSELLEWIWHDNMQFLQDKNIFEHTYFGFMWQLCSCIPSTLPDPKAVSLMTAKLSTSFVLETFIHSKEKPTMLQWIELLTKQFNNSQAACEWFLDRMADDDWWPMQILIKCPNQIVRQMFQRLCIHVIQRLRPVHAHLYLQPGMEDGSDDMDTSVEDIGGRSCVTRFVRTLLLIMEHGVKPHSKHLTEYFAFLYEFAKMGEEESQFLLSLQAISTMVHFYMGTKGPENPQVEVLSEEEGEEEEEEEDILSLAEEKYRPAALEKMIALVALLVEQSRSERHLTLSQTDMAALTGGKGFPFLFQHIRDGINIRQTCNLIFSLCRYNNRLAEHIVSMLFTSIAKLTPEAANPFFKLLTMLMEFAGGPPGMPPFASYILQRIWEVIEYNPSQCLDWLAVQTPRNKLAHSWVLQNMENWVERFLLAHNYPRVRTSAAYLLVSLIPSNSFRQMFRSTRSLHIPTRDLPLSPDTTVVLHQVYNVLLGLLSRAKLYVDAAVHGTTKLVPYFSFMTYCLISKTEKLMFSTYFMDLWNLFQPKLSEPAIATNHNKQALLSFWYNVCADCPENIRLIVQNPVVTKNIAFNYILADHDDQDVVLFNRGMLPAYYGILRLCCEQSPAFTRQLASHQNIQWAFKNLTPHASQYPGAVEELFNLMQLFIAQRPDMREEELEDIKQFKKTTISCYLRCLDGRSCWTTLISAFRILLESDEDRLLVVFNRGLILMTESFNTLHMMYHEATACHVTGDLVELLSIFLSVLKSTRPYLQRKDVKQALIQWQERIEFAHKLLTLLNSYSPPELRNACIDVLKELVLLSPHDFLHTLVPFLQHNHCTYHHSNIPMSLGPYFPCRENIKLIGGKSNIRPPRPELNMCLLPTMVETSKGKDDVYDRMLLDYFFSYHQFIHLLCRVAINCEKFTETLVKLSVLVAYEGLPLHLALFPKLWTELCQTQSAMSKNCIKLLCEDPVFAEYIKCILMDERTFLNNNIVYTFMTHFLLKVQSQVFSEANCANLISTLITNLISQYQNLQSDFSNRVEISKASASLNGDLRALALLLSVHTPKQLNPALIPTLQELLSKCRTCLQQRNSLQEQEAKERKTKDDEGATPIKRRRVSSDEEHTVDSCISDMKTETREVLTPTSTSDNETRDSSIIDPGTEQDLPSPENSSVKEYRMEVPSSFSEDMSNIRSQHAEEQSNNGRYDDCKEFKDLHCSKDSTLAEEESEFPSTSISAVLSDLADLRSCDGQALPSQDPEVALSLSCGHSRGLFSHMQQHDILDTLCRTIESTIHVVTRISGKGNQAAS

Protein zwilch homolog, sequence (Q9H900 whole entry, looked up): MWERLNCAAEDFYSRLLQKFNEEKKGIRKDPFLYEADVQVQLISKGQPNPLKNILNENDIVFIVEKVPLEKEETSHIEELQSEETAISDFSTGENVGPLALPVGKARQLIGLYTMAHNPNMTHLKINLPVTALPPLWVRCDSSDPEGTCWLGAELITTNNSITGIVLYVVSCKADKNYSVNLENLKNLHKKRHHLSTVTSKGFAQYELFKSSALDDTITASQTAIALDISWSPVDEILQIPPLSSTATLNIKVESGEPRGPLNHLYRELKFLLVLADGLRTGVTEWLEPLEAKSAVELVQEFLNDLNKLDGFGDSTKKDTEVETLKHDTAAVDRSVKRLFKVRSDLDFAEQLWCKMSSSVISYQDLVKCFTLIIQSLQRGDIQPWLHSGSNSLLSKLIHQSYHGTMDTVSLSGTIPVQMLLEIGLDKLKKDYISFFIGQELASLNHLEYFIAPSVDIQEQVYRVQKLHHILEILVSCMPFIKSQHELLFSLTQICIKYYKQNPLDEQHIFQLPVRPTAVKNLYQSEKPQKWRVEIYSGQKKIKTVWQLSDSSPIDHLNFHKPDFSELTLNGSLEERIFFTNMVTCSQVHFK
Prenylcysteine oxidase 1, sequence (Q9UHG3 whole entry, looked up): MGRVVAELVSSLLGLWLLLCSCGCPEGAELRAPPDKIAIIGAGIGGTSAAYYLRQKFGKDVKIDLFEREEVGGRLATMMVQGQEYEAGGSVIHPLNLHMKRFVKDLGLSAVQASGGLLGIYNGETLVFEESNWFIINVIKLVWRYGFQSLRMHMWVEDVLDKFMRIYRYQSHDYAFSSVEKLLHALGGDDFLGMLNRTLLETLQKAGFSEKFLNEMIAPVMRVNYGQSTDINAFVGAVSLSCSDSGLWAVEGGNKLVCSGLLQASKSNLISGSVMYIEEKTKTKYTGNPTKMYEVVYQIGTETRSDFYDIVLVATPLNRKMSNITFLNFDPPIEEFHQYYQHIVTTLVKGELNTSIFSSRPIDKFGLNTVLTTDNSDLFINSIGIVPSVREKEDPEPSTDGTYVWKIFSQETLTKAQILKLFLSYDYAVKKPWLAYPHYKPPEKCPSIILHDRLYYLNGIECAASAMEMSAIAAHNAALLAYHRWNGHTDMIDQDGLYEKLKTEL
NADH dehydrogenase [ubiquinone] 1 alpha subcomplex subunit 6 (Homo sapiens), sequence (P56556 whole entry, looked up, one chain of several): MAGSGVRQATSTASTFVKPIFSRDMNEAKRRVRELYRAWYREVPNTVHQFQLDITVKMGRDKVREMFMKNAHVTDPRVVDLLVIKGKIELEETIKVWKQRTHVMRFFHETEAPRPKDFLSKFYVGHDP

CN1C(=O)c2cc(NC(=O)c3ccc(C(F)(F)F)cc3)ccc2OC[C@@H]2O[C@H](CC(=O)NC3Cc4ccccc4C3)CC[C@@H]21
Kd [1]: 26.7 µM | Kd [2]: 29.3 µM | Kd (Prenylcysteine oxidase 1): 10.2 µM | Kd (Protein zwilch homolog): 18.4 µM | Kd (Ran-binding protein 6): 25.6 µM | Kd [3]: 25.7 µM
